Assays:
Assay in all cases: cell viability (% survival relative to DMSO control, bortezomib = 0%); higher = less cytotoxic
Settings in all cases: 72 h
HEL = test system: HEL
Summary of the method: (§1)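 Seeding density for each of the 10 AML and 5 CML cell lines was titrated to the linear growth range. Cells went into 384-well plates pre-printed in duplicate with compounds at 1, 10, 100, 1000 or 10000 nM and were held for 72 h at 37 °C with 5% CO2. CellTiter-Glo luminescence then provided the readout. Percent survival is expressed relative to vehicle at 100% and a 10 µM positive control at 0%, averaged over duplicates.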

MV4-11 = test system: MV4-11
Summary of the method: as §1

Mono-Mac-6 = test system: Mono-Mac-6
Summary of the method: as §1

NOMO-1 = test system: NOMO-1
Summary of the method: as §1

SMILES | cell viability (HEL; 1 nM) [%] | cell viability (HEL; 10 nM) [%] | cell viability (HEL; 100 nM) [%] | cell viability (HEL; 1000 nM) [%] | cell viability (HEL; 10000 nM) [%] | cell viability (MV4-11; 1 nM) [%] | cell viability (MV4-11; 10 nM) [%] | cell viability (MV4-11; 100 nM) [%] | cell viability (MV4-11; 1000 nM) [%] | cell viability (MV4-11; 10000 nM) [%] | cell viability (Mono-Mac-6; 1 nM) [%] | cell viability (Mono-Mac-6; 10 nM) [%] | cell viability (Mono-Mac-6; 100 nM) [%] | cell viability (Mono-Mac-6; 1000 nM) [%] | cell viability (Mono-Mac-6; 10000 nM) [%] | cell viability (NOMO-1; 1 nM) [%] | cell viability (NOMO-1; 10 nM) [%] | cell viability (NOMO-1; 100 nM) [%] | cell viability (NOMO-1; 1000 nM) [%] | cell viability (NOMO-1; 10000 nM) [%]
Cc1coc2c1C(=O)C(=O)c1c-2ccc2c(C)cccc12 [Tanshinone I] | 121 | 97.3 | 107 | 106 | 92.7 | 101 | 89.7 | 108 | 103 | 97.2 | 126 | 107 | 106 | 102 | 84.7 | 111 | 103 | 97.3 | 98.6 | 91.5
CN(C/C=C/C#CC(C)(C)C)Cc1cccc2ccccc12 [Terbinafine] | 101 | 91.1 | 110 | 96.8 | 96.6 | 93.7 | 92.8 | 102 | 111 | 109 | 103 | 96.2 | 102 | 98.7 | 91.2 | 99.3 | 101 | 96.7 | 103 | 96.9
CCOC(=O)N1c2ccc(C(F)(F)F)cc2[C@@H](N(Cc2cc(C(F)(F)F)cc(C(F)(F)F)c2)C(=O)OC)C[C@H]1CC [Torcetrapib] | 102 | 96.9 | 134 | 103 | 109 | 103 | 105 | 147 | 84.6 | 53.3 | 109 | 109 | 107 | 90.8 | 78.2 | 103 | 99.4 | 102 | 99.1 | 99
Oc1cc(Cl)ccc1Oc1ccc(Cl)cc1Cl [Triclosan] | 118 | 110 | 86.3 | 105 | 108 | 110 | 82.5 | 104 | 93.7 | 82.1 | 94.5 | 98.3 | 101 | 116 | 97.2 | 102 | 89 | 99.3 | 104 | 105
COc1cc2c(NC3CCN(C)CC3)nc(N3CCCN(C)CC3)nc2cc1OCCCN(C)C [UNC0224] | 84.8 | 114 | 106 | 98.3 | 88.6 | 97.8 | 98.7 | 95.2 | 91.4 | 64 | 100 | 116 | 101 | 98.5 | 81.4 | 103 | 111 | 98.4 | 95.2 | 90.4
CC(C)C[C@H](NC(=O)[C@@H](O)[C@H](N)Cc1ccccc1)C(=O)O [Ubenimex] | 107 | 106 | – | 95.4 | 106 | 100 | 103 | 109 | 99.8 | 143 | 99.5 | 116 | 96.4 | 83.1 | 90.1 | 105 | 105 | 94.8 | 95.5 | 100
O=P(O)(O)C(O)(Cn1ccnc1)P(=O)(O)O [Zoledronic acid] | 90.6 | 92.7 | 101 | 94.9 | 99.3 | 94.7 | 104 | 88.7 | 101 | 81.5 | 96.7 | 104 | 91.1 | 91 | 96.7 | 98.8 | 101 | 95.6 | 103 | 94.6

Source: the supplement of paper PMC8671470
